Reference: the supplement of paper PMC10307832

What was measured:
Experiment in all cases: relative viability (nuclei count vs DMSO), 5 days (fraction); higher = more cells survive
[1] = compound: CN(c1ncccc1CNc1nc(Nc2ccc3c(c2)CC(=O)N3)ncc1C(F)(F)F)S(C)(=O)=O + Cc1nc(Nc2ncc(C(=O)Nc3c(C)cccc3Cl)s2)cc(N2CCN(CCO)CC2)n1 [Dasatinib] (partner 0.075 µM)
Procedure, shortened: (§1)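 One day after seeding in 1536-well plates, lung cancer cell lines were dosed by pin tool. Dosing was either single-drug or a fixed anchor-drug dose plus five library-drug doses (not always all listed) in √10 steps. After 5 days, nuclei were stained in one fix-and-stain step and counted on 4× images, and relative viability is the nuclei count of treated wells over that of vehicle wells, given as the median of duplicate plates.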

[2] = compound: CN(c1ncccc1CNc1nc(Nc2ccc3c(c2)CC(=O)N3)ncc1C(F)(F)F)S(C)(=O)=O + CS(=O)(=O)N1CCN(Cc2cc3nc(-c4cccc5[nH]ncc45)nc(N4CCOCC4)c3s2)CC1 [Pictilisib] (partner 1 µM)
Procedure, shortened: as §1

[3] = compound: CN(c1ncccc1CNc1nc(Nc2ccc3c(c2)CC(=O)N3)ncc1C(F)(F)F)S(C)(=O)=O + C[C@@H](Oc1cc(-c2cnn(C3CCNCC3)c2)cnc1N)c1c(Cl)ccc(F)c1Cl [Crizotinib] (partner 1 µM)
Procedure, shortened: as §1

[4] = compound: CN(c1ncccc1CNc1nc(Nc2ccc3c(c2)CC(=O)N3)ncc1C(F)(F)F)S(C)(=O)=O + O=C(CCCCCCC(=O)Nc1ccccc1)NO [Vorinostat] (partner 1 µM)
Procedure, shortened: as §1

Cell Line | relative viability ([1]; first compound 0.01 µM) | relative viability ([1]; first compound 0.03162 µM) | relative viability ([1]; first compound 0.1 µM) | relative viability ([1]; first compound 0.3162 µM) | relative viability ([1]; first compound 1 µM) | relative viability ([2]; first compound 0.01 µM) | relative viability ([2]; first compound 0.03162 µM) | relative viability ([2]; first compound 0.1 µM) | relative viability ([2]; first compound 0.3162 µM) | relative viability ([2]; first compound 1 µM) | relative viability ([3]; first compound 0.01 µM) | relative viability ([3]; first compound 0.03162 µM) | relative viability ([3]; first compound 0.1 µM) | relative viability ([3]; first compound 0.3162 µM) | relative viability ([3]; first compound 1 µM) | relative viability ([4]; first compound 0.01 µM) | relative viability ([4]; first compound 0.03162 µM) | relative viability ([4]; first compound 0.1 µM) | relative viability ([4]; first compound 0.3162 µM) | relative viability ([4]; first compound 1 µM)
NCI-H23 | 0.78 | 0.697 | 0.882 | 0.835 | 0.719 | 0.554 | 0.492 | 0.564 | 0.495 | 0.441 | 0.444 | 0.483 | 0.456 | 0.59 | 0.457 | 0.659 | 0.594 | 0.633 | 0.714 | 0.662
NCI-H322M | 0.205 | 0.178 | 0.223 | 0.199 | 0.219 | 0.495 | 0.48 | – | 0.593 | 0.553 | 0.902 | 0.948 | – | 0.953 | 0.892 | 0.883 | 0.875 | 0.916 | 0.97 | 0.98
NCI-H358 | 0.202 | 0.15 | 0.137 | 0.22 | 0.167 | 0.276 | 0.351 | 0.275 | 0.347 | 0.243 | 0.608 | 0.449 | 0.515 | 0.449 | 0.303 | 0.65 | 0.704 | 0.692 | 0.573 | 0.421
NCI-H441 | 0.631 | 0.497 | 0.378 | 0.35 | 0.295 | 0.554 | 0.516 | 0.527 | 0.527 | 0.508 | 0.679 | 0.825 | 0.604 | 0.692 | 0.654 | 0.933 | 0.978 | 0.824 | 0.792 | 0.644
NCI-H460 | 0.62 | 0.505 | 0.462 | 0.456 | 0.436 | 0.338 | 0.425 | 0.437 | 0.367 | 0.418 | 1.1 | 1.15 | 0.994 | 0.891 | 0.712 | 0.696 | 0.757 | 0.615 | 0.76 | 0.736
NCI-H520 | 0.21 | 0.221 | 0.151 | 0.152 | 0.155 | 0.285 | 0.386 | 0.322 | 0.277 | 0.379 | 0.874 | 0.795 | 0.78 | 0.782 | 0.601 | 0.678 | 0.925 | 0.693 | 0.746 | 0.754
NCI-H596 | 0.558 | 0.623 | 0.54 | 0.608 | 0.5 | 0.409 | 0.37 | 0.428 | 0.456 | 0.37 | 0.988 | 0.928 | 0.894 | 0.986 | 0.999 | 0.586 | 0.616 | 0.566 | 0.557 | 0.69
NCI-H647 | 0.146 | 0.193 | 0.127 | 0.151 | 0.125 | 0.529 | 0.365 | 0.38 | – | 0.594 | 1.01 | 1.43 | 1.05 | 1 | 1.06 | 0.473 | 0.742 | 0.476 | 0.577 | 0.631
NCI-H650 | 0.445 | 0.459 | 0.434 | 0.434 | 0.456 | 0.961 | 1.15 | 0.671 | 0.639 | 0.842 | 0.68 | 0.727 | 0.675 | 0.538 | 0.675 | 0.454 | 0.565 | 0.557 | 0.415 | 0.303
NCI-H661 | 0.973 | 0.809 | 0.885 | 0.782 | 0.83 | 0.578 | 0.335 | 0.405 | 0.378 | 0.383 | 0.973 | 0.955 | 1.02 | 0.904 | 0.915 | 0.763 | 0.84 | 0.744 | 0.786 | 0.759
NCI-H727 | 0.363 | 0.287 | 0.271 | 0.272 | 0.264 | 0.459 | 0.269 | 0.393 | 0.31 | 0.344 | 0.925 | 1.02 | 0.633 | 0.885 | 0.689 | 1.26 | 1.29 | 1.23 | 1.08 | 1.34
NCI-H838 | 0.27 | 0.279 | 0.217 | 0.305 | 0.205 | 0.431 | 0.482 | 0.471 | 0.448 | 0.395 | 0.807 | 1.02 | 0.873 | 0.672 | 0.488 | 0.715 | 0.731 | 0.94 | 0.589 | 0.437
NCI-H1355 | 0.757 | 0.76 | 0.75 | 0.606 | 0.645 | 0.399 | 0.474 | 0.346 | 0.432 | 0.381 | 1.06 | 1.13 | 1.02 | 0.97 | 0.924 | 0.67 | 0.708 | 0.676 | 0.589 | 0.623
NCI-H1437 | 0.401 | 0.391 | 0.426 | 0.204 | 0.427 | 0.424 | 0.468 | 0.557 | 0.41 | 0.546 | 0.912 | 1.02 | 0.884 | 0.856 | 0.77 | 0.763 | 0.846 | 0.697 | 0.597 | 0.414
NCI-H1650 | 0.303 | 0.367 | 0.339 | 0.303 | 0.327 | 0.557 | 0.676 | 0.609 | – | 0.581 | 1.01 | 0.945 | 1.17 | – | 0.94 | 0.682 | 0.513 | 0.581 | 0.586 | 0.69
NCI-H1651 | 0.47 | 0.374 | 0.38 | 0.316 | 0.282 | 0.523 | 0.617 | 0.601 | 0.596 | 0.546 | 0.858 | 0.85 | 0.871 | 0.846 | 0.884 | 0.565 | 0.566 | 0.535 | 0.568 | 0.571
